# Source: publication PMC11983575, “Study on the synthesis and biological activity of kojic acid triazol thiosemicarbazide Schiff base derivatives” (Journal of Enzyme Inhibition and Medicinal Chemistry, 2025)
# What was measured:
# [1] = ABTS radical cation scavenging activity assay; conditions: 734 nm; read-out: ABTS+/IC50 (μM) ± SD
# Protocol: ABTS free radical scavenging activity was performed according to the procedure described by Zhang et al.[40] Test solution of ABTS decolourisation assay was prepared by mixing 2.45 mM potassium persulfate and 7 mM ABTS at 8:12 volume/volume ratio. The working solution was kept in the dark at room temperature for 12–18 h. Before ABTS radical scavenging test, the ABTS test solution was diluted with DMSO to absorbance of 0.7 (±0.02) at 734 nm. One millilitre of diluted ABTS test solution was added to 10 μl of DMSO or test sample. After initial mixing, the working solution was kept in the dark at room temperature for 2–6 min, and the absorbance was measured at 734 nm. This test was carried out in triplicate. DMSO was used as a control. Ascorbic acid was used as antioxidant standard for comparison of the activity. The absorbance of test samples was calculated by the following formula. ABTS scavenging ability %=absorbance of standard−absorbance of sample/absorbance of standard×100.
# [2] = DPPH free radical scavenging activity assay; conditions: DPPH 150 μM, 30 min, 517 nm; read-out: DPPH/IC50 (μM) ± SD
# Protocol: The anti-oxidation effect on DPPH radical was determined by a slightly modified version of a previously described DPPH radical scavenging assay. Reaction mixtures consisted of 100 μl of DPPH (150 μM), 20 μl of increasing concentration of test compounds and the volume was adjusted to 200 μl in each well with DMSO. The assay solution was then incubated at room temperature (25 °C) for 30 min in the dark. After the incubation, absorbance at 517 nm was measured by using UV-2600 spectrophotometer. The experiments were undertaken in triplicate. DMSO was used as a control. Ascorbic acid was used as antioxidant standard for comparison of the activity. The calculation of DPPH radical scavenging activity was followed by this formula: DPPH radical scavenging activity %=absorbance of standard−absorbance of sample/Absorbance of standard×100
Compound,IC50 [1],IC50 [2]
"NC(=S)NN=Cc1ccccc1OCc1cn(Cc2cc(=O)c(O)co2)nn1 [Compound 6a, (2-((1-((5-Hydroxy-4-oxo-4H-pyran-2-yl)methyl)-1H-1,2,3-triazol-4-yl)methoxy)benzylidene)hydrazinecarbothioamide]",43.89 ± 0.034 µM,173.2 ± 0.058 µM
"NC(=S)NN=Cc1ccc(F)cc1OCc1cn(Cc2cc(=O)c(O)co2)nn1 [Compound 6b, 2-(4-Fluoro-2-((1-((5-hydroxy-4-oxo-4H-pyran-2-yl)methyl)-1H-1,2,3-triazol-4-yl)methoxy)benzylidene)hydrazinecarbothioamide]",63.1 ± 0.042 µM,105.4 ± 0.115 µM
"NC(=S)NN=Cc1ccc(Cl)cc1OCc1cn(Cc2cc(=O)c(O)co2)nn1 [Compound 6c, 2-(4-Chloro-2-((1-((5-hydroxy-4-oxo-4H-pyran-2-yl)methyl)-1H-1,2,3-triazol-4-yl)methoxy)benzylidene)hydrazinecarbothioamide]",72.03 ± 0.084 µM,104.7 ± 0.088 µM
"NC(=S)NN=Cc1ccc(Br)cc1OCc1cn(Cc2cc(=O)c(O)co2)nn1 [Compound 6d, 2-(4-Bromo-2-((1-((5-hydroxy-4-oxo-4H-pyran-2-yl)methyl)-1H-1,2,3-triazol-4-yl)methoxy)benzylidene)hydrazinecarbothioamide]",91.1 ± 0.033 µM,71.43 ± 0.036 µM
"COc1ccc(C=NNC(N)=S)c(OCc2cn(Cc3cc(=O)c(O)co3)nn2)c1 [Compound 6e, 2-(2-((1-((5-Hydroxy-4-oxo-4H-pyran-2-yl)methyl)-1H-1,2,3-triazol-4-yl)methoxy)-4-methoxybenzylidene)hydrazinecarbothioamide]",8.24 ± 0.048 µM,87.47 ± 0.144 µM
"Cc1ccc(C=NNC(N)=S)c(OCc2cn(Cc3cc(=O)c(O)co3)nn2)c1 [Compound 6f, 2-(2-((1-((5-Hydroxy-4-oxo-4H-pyran-2-yl)methyl)-1H-1,2,3-triazol-4-yl)methoxy)-4-methylbenzylidene)hydrazinecarbothioamide]",34.95 ± 0.061 µM,99.6 ± 0.056 µM
"NC(=S)NN=Cc1cc(Cl)ccc1OCc1cn(Cc2cc(=O)c(O)co2)nn1 [Compound 6g, 2-(5-Chloro-2-((1-((5-hydroxy-4-oxo-4H-pyran-2-yl)methyl)-1H-1,2,3-triazol-4-yl)methoxy)benzylidene)hydrazinecarbothioamide]",52.65 ± 0.109 µM,133.8 ± 0.048 µM
"NC(=S)NN=Cc1cc(Br)ccc1OCc1cn(Cc2cc(=O)c(O)co2)nn1 [Compound 6h, 2-(5-Bromo-2-((1-((5-hydroxy-4-oxo-4H-pyran-2-yl)methyl)-1H-1,2,3-triazol-4-yl)methoxy)benzylidene)hydrazinecarbothioamide]",68.49 ± 0.091 µM,118.4 ± 0.049 µM
"Cc1ccc(OCc2cn(Cc3cc(=O)c(O)co3)nn2)c(C=NNC(N)=S)c1 [Compound 6i, 2-(2-((1-((5-Hydroxy-4-oxo-4H-pyran-2-yl)methyl)-1H-1,2,3-triazol-4-yl)methoxy)-5-methylbenzylidene)hydrazinecarbothioamide]",61.66 ± 0.091 µM,248.1 ± 0.041 µM
"CCOc1cccc(C=NNC(N)=S)c1OCc1cn(Cc2cc(=O)c(O)co2)nn1 [Compound 6j, 2-(3-Ethoxy-2-((1-((5-hydroxy-4-oxo-4H-pyran-2-yl)methyl)-1H-1,2,3-triazol-4-yl)methoxy)benzylidene)hydrazinecarbothioamide]",6.78 ± 0.082 µM,25.6 ± 0.031 µM
"CC(C)(C)c1cccc(C=NNC(N)=S)c1OCc1cn(Cc2cc(=O)c(O)co2)nn1 [Compound 6k, 2-(3-(Tert-butyl)-2-((1-((5-hydroxy-4-oxo-4H-pyran-2-yl)methyl)-1H-1,2,3-triazol-4-yl)methoxy)benzylidene)hydrazinecarbothioamide]",9.31 ± 0.022 µM,49.17 ± 0.077 µM
"CC(=NNC(N)=S)c1ccccc1OCc1cn(Cc2cc(=O)c(O)co2)nn1 [Compound 6p, 2-(1-(2-((1-((5-Hydroxy-4-oxo-4H-pyran-2-yl)methyl)-1H-1,2,3-triazol-4-yl)methoxy)phenyl)ethylidene)hydrazinecarbothioamide]",3.19 ± 0.034 µM,10.53 ± 0.014 µM
